Laboratory results reported in publication PMC8103899, “Allyl Isothiocyanate: A TAS2R38 Receptor-Dependent Immune Modulator at the Interface Between Personalized Medicine and Nutrition” (Frontiers in Immunology, 2021).

Assays:
[1] = tested on: E. coli K-12; experiment: Bactericidal activity of PBMC co-incubated with E. coli K-12 (DiBAC4(3) depolarization); format: cell-based, Escherichia coli; conditions: MOI 0.5
Procedure: E. coli K-12 bacteria were grown in Luria-Bertani medium at 37°C to mid-logarithmic-phase as determined by OD600. Next, PBMC (1x10^6/mL) were incubated with E. coli K-12 at MOI 0.5 in RPMI 1640 medium supplemented with 2% heat-inactivated fetal calf serum and exposed to the test compounds for 120 min in a humidify condition (5% CO2, 37°C). Thereafter, 1 µg/mL of the membrane potential dye DiBAC4(3) was added and incubated for 10 min at room temperature in the dark. Subsequently, the cells were washed once with PBS and centrifuged at 4500 x g for 10 min. The percentage of depolarized bacteria was determined using a FACSCalibur™ flow cytometer with an excitation wavelength of 493 nm.
Figure 3 AITC stimulates NO production and exerts bactericidal activity in dependence of the TAS2R38 haplotype. […] Fluorescence signals (ex 488 nm, em 530± 30 nm) were monitored using a FACSCalibur™. The median fluorescence intensity (MFI) of each sample was calculated using FlowJo software (Ashland, Oregon, USA). […] Cell membrane potential depolarization was determined by staining bacteria with 1 µg/ml DiBAC4(3) for 10 min, in the dark at room temperature. […] Significance of difference was calculated relative to the respective control by one-way ANOVA. […]

[2] = Human food intervention: AITC metabolite plasma levels after mustard intake (LC-ESI-MS/MS); format: in vivo; conditions: single intake of an AITC containing food product
Procedure: AITC metabolite quantification was carried out in blood plasma samples derived from an intervention study at the University Medical Center in Freiburg, Germany. Samples were from 4 healthy young adults (3 females, 1 male, aged between 30-40 years) having a normal BMI, and were non-smokers. Each subject consumed one time 10 g of a commercially available mustard preparation ([…] Munich, Germany) containing 24.74 ± 1.76 μmol/g fresh weight preformed AITC on an empty stomach with optional consumption of white bread. The intervention was preceded by a 48 h wash-out phase consisting of a glucosinolate/ITC-free diet. After 30 min and optionally 60 min, blood was collected by venipuncture in serum tubes and centrifuged at 2000g for 10 min, 4°C to obtain serum. Subsequently, TFA was added and the samples frozen at -80°C. The preparation of serum samples (300 μL serum and 100 μL TFA) was conducted as described by Kühn et al. ([37]). The frozen samples were thawed, vortexed (1 min) and centrifuged (4 °C, 10 min, 20.854 x g). The supernatant was transferred to SPE cartridges. Prior to transferring, SPE cartridges were conditioned with acetonitrile (ACN, 3 mL) and equilibrated with water (3 mL). After sample application, the cartridges were washed with formic acid (FA, 3 mL, 0.1% in water) and the metabolites were eluted with FA (3 mL, 0.1% in ACN:water, 90:10, v/v). […] The samples were re-dissolved in 100 μL FA (0.1% in ACN:water, 90:10, v/v). Sample aliquots of 5 μL were injected into the LC-ESI-MS/MS system. LC-ESI-MS/MS analysis was performed on an API4000 triple quadrupole mass spectrometer (AB Sciex Germany GmbH, Darmstadt, Germany) equipped with an Agilent 1200 LC system (Agilent Technologies Deutschland GmbH & Co. KG, Waldbronn, Germany). For data acquisition and processing the software Analyst 1.6.1 (AB Sciex Germany GmbH, Darmstadt, Germany) was used. […] AITC-CysGly; AITC-Cys; AITC-NAC) was conducted according to Platz et al. ([38]) with minor modifications. The separation was performed on a Kinetex C18 column (Phenomenex, 5 μm, 100 Å, 150 x 2.1 mm). The autosampler operated at 4°C and the set temperature for the oven was 20°C. A constant flow of 300 μL/min was used for the mobile phase which consisted of 0.1% FA in water (A) and 0.1% FA in ACN (B). […] In order to equilibrate the column, A was increased to 90% and held for 5 min. The relevant MS parameters include an entrance potential of -10 V, a desolvation gas temperature of 450°C, ion spray potential of -4.5 kV, gas 1 and gas 2 at 46 psi and a curtain gas pressure at 10 psi.

C=CCN=C=S [AITC, allyl isothiocyanate]
bactericidal activity ([1]; AVI/AVI cells): no effect
bactericidal activity ([1]; PAV/PAV cells): increased bactericidal activity
AITC plasma levels [2]: around one
